In general, Kd refers to the free concentration of one partner at which half of the binding sites on the other are occupied at equilibrium, for simple one-to-one binding.

From patent US20260355182A1, “ISOQUINOLINE DERIVATIVE, SYNTHESIS METHOD THEREFOR, AND USE THEREOF” (Harbin Gloria Pharmaceuticals Co., Ltd., priority 2023, published 2026) come the findings set out here.

One series deals with SK-N-SH cells. Nature of the series: Dose-effect relationship on cellular ATP levels in cultured SK-N-SH cells. The class given is cell-based, human. How it is done: SK-N-SH cells were seeded in a 6-well plate at a density of 6×10^4 per well. Cells were cultured for 12 hours under 5% O2, and the drug was added. Cells were harvested after 48 hours. Cellular ATP levels were measured using a Promega ATP assay kit. The experiment was repeated 5 times to 7 times.

Series [1] deals with db/db mice. Nature of the series: Chronic treatment assay, HbA1c in db/db mice (ELISA). The class given is in vivo. As to conditions: drinking water 2 weeks, particularly T6 1.5 mg/kg, vs untreated control. The protocol:
The db/db mice were used to evaluate the glucose-lowering activity of compound T6 in comparison with reference metabolic agents (TZ 0.5 mg/Kg, liraglutide 0.6 mg/Kg, T6 0.5 mg/Kg). In FIG. 15, A) for the acute glucose-response assay, drugs were administered to non-fasted db/db mice. Immediately after drug administration (s. c.), mice were deprived of food and water, and blood glucose levels were measured from tail blood samples 2 h later. The relative percentage change in blood glucose was calculated by comparing glucose levels before and after treatment in the same animal. […] HbA1c levels were then measured using a glycated hemoglobin A1c enzyme-linked immunosorbent assay, also referred to as a mouse HbA1c ELISA assay. […] Data are presented as mean±error bars, with individual circles representing individual animals. Statistical significance is indicated as P<0.001 (**) and P<0.0001 (***).
For orientation: ELISA stands for enzyme-linked immunosorbent assay.

Series [2] concerns the target T1, Pgk1 (Homo sapiens, UniProt P00558).
T1 sequence (P00558 1-417): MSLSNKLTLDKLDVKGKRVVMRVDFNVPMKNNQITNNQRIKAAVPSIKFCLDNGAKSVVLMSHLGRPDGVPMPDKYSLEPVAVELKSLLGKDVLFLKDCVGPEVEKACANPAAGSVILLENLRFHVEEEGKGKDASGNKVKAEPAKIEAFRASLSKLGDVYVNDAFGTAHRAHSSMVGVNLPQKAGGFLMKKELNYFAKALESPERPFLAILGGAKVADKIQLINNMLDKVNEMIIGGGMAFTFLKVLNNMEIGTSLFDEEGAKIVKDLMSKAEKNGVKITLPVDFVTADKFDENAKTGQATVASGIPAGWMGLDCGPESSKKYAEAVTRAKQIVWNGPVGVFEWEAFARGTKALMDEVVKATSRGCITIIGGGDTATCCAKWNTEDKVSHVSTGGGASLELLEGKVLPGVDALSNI
Put plainly: Affinity for Pgk1 protein (Biacore T200). The class given is binding. The protocol:
Example 30: Determination of Affinities of Compounds for Pgk1 Protein
Purified Pgk1 protein (with a concentration of 1 mg/mL) was immobilized on a Biacore T200 chip. […] The obtained curves can calculate parameters such as affinity and Rmax.
Background: Surface plasmon resonance follows binding to a sensor surface in real time, without labels.

In series [3] the test system is db/db mice. Put plainly: Hypoglycemic effect in diabetic model db/db mice, intraperitoneal. The class given is in vivo. Particulars: 4 hours. The protocol:
Gene knockout db/db mice are a classic model of hyperglycemia and obesity. Under normal feeding conditions, mice aged 3 months or older developed hyperglycemia and obesity. After the mice were provided with only drinking water (fasted) for 6 hours, blood was collected from the tail of the mice to measure blood glucose values. Subsequently, different drugs, including saline (control), liraglutide at 0.6 mg/Kg, low-concentration T6 (T6 low, 0.1 mg/Kg), and high-concentration T6 (T6 high, 0.5 mg/Kg), were injected intraperitoneally. 4 hours later, blood was collected from the tail of the mice to measure the blood glucose levels. Each group consisted of 6 mice. Blood glucose levels before administration (Vbefore) and after administration (Vafter) were obtained for each mouse. The effect of the drug on blood glucose (%) was calculated as follows:
(Vbefore−Vafter)×100/Vbefore.

The target of series [4] is T1, Pgk1. Nature of the series: In vitro biochemical Pgk1 enzymatic activity assay (NADH production). Further details: GAPDH-coupled NADH assay. Particulars: role: activator, 1.6 mM GAP, 1 mM β-NAD, 1 mM ADP. How it is done: Human Pgk1 cDNA was cloned into the pEASYTM-E2 vector (TransGen Biotech) containing a His tag. Protein expression was induced in BL21(DE3) chemocompetent cells (TransGen Biotech) with 0.5 mM IPTG. After lysing cells in extraction buffer (20 mM sodium phosphate, 500 mM NaCl, 5 mM imidazole, 5% glycerol, protease inhibitor cocktail, pH 7.9), the supernatant was purified with nickel beads (AdarBiotech). The His-tagged Pgk1 was eluted with the elution buffer (20 mM sodium phosphate, 500 mM NaCl, 80 mM imidazole, protease inhibitor cocktail, pH 7.9). The activity of Pgk1 can be measured by monitoring the rate of NADH production, as NADH accumulated as the reaction proceeded. Purified Pgk1-His protein ([…]) was added to the reaction buffer (20 mM Tris, 100 mM NaCl, 2 mM DTT, 0.1 mM MgSO4, 10 mM NaHPO4, pH 8.6), and the substrates (1.6 mM GAP, 1 mM β-NAD, 1 mM ADP, 20 ng/μL GAPDH) was added. […] After reaction for 10 minutes at room temperature, the absorbance wavelength at 339 nm was measured using a microplate reader (Molecular Devices, SpectraMax i3x), and this wavelength corresponds to NADH levels.

Another series relates to SKN cells (Pgk1 shRNA). Nature of the series: Mitochondrial respiration in SKN cells with Pgk1 shRNA (Seahorse). The class given is cell-based. The protocol:
SKN cells were transduced with Pgk1 shRNA to reduce endogenous Pgk1 expression and were subsequently treated with vehicle control or compound T6. […] GAPDH was used as a loading control; B) mitochondrial respiration was assessed by Seahorse extracellular flux analysis and is expressed as oxygen consumption rate (OCR; pmol/min/10^4 cells). Oligomycin, FCCP, and rotenone plus antimycin were sequentially added to evaluate basal respiration, ATP-linked respiration, maximal respiratory capacity, and non-mitochondrial respiration. […] In contrast, Pgk1 knockdown reduced mitochondrial respiratory activity and diminished the respiration-enhancing effect of T6. […] Data are presented as mean±SD, with individual points representing replicate measurements. Statistical significance is indicated as **P<0.001; ns, not significant. […] The data support Pgk1 as a functional cellular target mediating the metabolic activity of T6.

As for `Nc1nc(N2CCN(C(=O)[C@H]3CCCO3)CC2)cc2cc3c(cc12)OCC3` [Compound T6], the “Inhibition of cell growth” value in the series on SK-N-SH cells (50 μM, SK-N-SH cells) is “a tendency to inhibit cell growth”. In the series with SK-N-SH cells (Homo sapiens, 48 h, SK-N-SH cells, read-out: Biologically effective concentration), the minimal effective concentration is around 10 µM. Besides, the “Optimal dose for cellular ATP levels” value in the series on SK-N-SH cells (doses 5, 10 and 50 μM, 48 hours, 5% O2) stood at 50 µM. Moreover, in the series with db/db mice [1], the HbA1c level result is given as “reduced HbA1c levels”. Further, the Kd on Pgk1 [2] (+ saturated ADP, read-out: Affinity (KD) in the presence of ADP) is above 1 mM. Moreover, at Pgk1 [2] (drug alone, amount of small-molecule drug bound), the Rmax is on record as 106 RU. In addition, the “Hypoglycemic effect (low concentration)” value in the series with db/db mice [3] (0.1 mg/kg i.p.) is “significant hypoglycemic effects”. Further, the “Hypoglycemic effect (high concentration)” value with db/db mice [3] (0.5 mg/kg i.p.) is “significant hypoglycemic effects”. Also, at Pgk1 [4] (20 ng/μL GAPDH, pH 8.6, 10 minutes), the “Concentration for best activation of Pgk1” value stood at 0.1 µM. On Pgk1 [4] (all tested concentrations), the “Inhibition of Pgk1 at the tested concentrations” value is given as “none of the concentrations can inhibit Pgk1”. For the same compound, the “Basal respiration and maximal respiration (OCR), Pgk1 shRNA cells” value with SKN cells (Pgk1 shRNA) (Pgk1 shRNA-expressing SKN cells) is listed as “no significant increase”. Moreover, the “Basal respiration and maximal respiration (OCR), control cells” value with SKN cells (Pgk1 shRNA) (control SKN cells) was “significantly increased both basal respiration and maximal respiration”.
